Data on eight molecules can be found in PubChem BioAssay (NCI).

Molecules are shown by their SMILES.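 Protocol summary: plate cells (96-well), add compound at 5 concentrations, incubate 48 h, interpolate endpoints linearly. Definition used: TGI = concentration required for complete inhibition of growth.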

Some test systems named below: UO-31 renal; TK-10 renal; BT-549 breast; SNB-19 CNS; IGROV1 ovarian; SK-OV-3 ovarian; MDA-MB-231 breast; OVCAR-4 ovarian; T-47D breast; MCF7 breast; COLO 205 colon; SK-MEL-28 melanoma; NCI-H226 lung; A498 renal; DU-145 prostate; ACHN renal; U251 CNS; NCI-H23 lung; NCI-H460 lung; SR leukemia.
Common to all, as to assay: NCI anticancer screen, dose series, 48 h

As for `CCCCSC1=N/C(=C\c2ccco2)C(Cl)=N1`, the TGI in the test with UO-31 renal, in the test on TK-10 renal, in the test on BT-549 breast, with SNB-19 CNS, in the test on IGROV1 ovarian and in the test with SK-OV-3 ovarian was over 100 µM throughout. Further, the TGI in the test on MDA-MB-231 breast, in the test with OVCAR-4 ovarian, with T-47D breast, in the test on MCF7 breast, with COLO 205 colon and in the test on SK-MEL-28 melanoma was over 100 µM in each case. Moreover, the TGI with NCI-H226 lung, in the test with A498 renal, with DU-145 prostate, with ACHN renal, in the test on U251 CNS and in the test on NCI-H23 lung was over 100 µM throughout. Also, the TGI in the test with NCI-H460 lung is over 100 µM.

For `Oc1cc(O)cc(-c2nc3cc(F)ccc3s2)c1`, the TGI with UO-31 renal was 76.6 µM; with TK-10 renal, 76.5 µM; with BT-549 breast, 53.2 µM; in the test on SNB-19 CNS it was 97.2 µM; in the test on IGROV1 ovarian it was 70.9 µM; in the test with SK-OV-3 ovarian it was 70.4 µM. The TGI was 55.8 µM in the test with MDA-MB-231 breast; 63.7 µM in the test with OVCAR-4 ovarian; 51.4 µM in the test with T-47D breast; 64.6 µM with MCF7 breast; 40 µM with COLO 205 colon; 77 µM in the test with SK-MEL-28 melanoma. The TGI is 64.2 µM in the test on NCI-H226 lung; 47.1 µM in the test with A498 renal; over 100 µM with DU-145 prostate; 81.3 µM in the test on ACHN renal; 60.5 µM with U251 CNS; 94.5 µM in the test on NCI-H23 lung. Besides, the TGI in the test on NCI-H460 lung turned out to be 54 µM.

For the molecule `CCOC(=O)C1(C/C=C/CBr)CCc2ccccc2C1=O` (stereo not given), the TGI in the test with UO-31 renal was found to be 30.9 µM; in the test on TK-10 renal, 35.2 µM; in the test with BT-549 breast it was 44 µM; with SNB-19 CNS, 30.8 µM; in the test on IGROV1 ovarian, 26.2 µM; in the test on SK-OV-3 ovarian, 33.1 µM. Moreover, the TGI was found to be 56 µM in the test with MDA-MB-231 breast; 29.7 µM in the test on OVCAR-4 ovarian; 34.8 µM in the test with T-47D breast; 33.5 µM in the test on MCF7 breast; 42.6 µM in the test on COLO 205 colon; 35.6 µM with SK-MEL-28 melanoma. Moreover, the TGI in the test with NCI-H226 lung turned out to be 27.7 µM; with A498 renal, 38 µM; in the test with DU-145 prostate, 26.9 µM; in the test with ACHN renal it was 29.1 µM; in the test on U251 CNS, 31.2 µM; in the test on NCI-H23 lung it was 39.8 µM.

Consider `O=C(O/C=C\OC1CCCC1(c1ccccc1)c1ccccc1)c1ccccc1` (stereo not given), for which the TGI with UO-31 renal amounted to 3.84 µM; with TK-10 renal it was 17.9 µM; with BT-549 breast it was 4.58 µM; in the test on SNB-19 CNS it was 28.9 µM; in the test with IGROV1 ovarian, 9.37 µM; in the test on SK-OV-3 ovarian, 30.5 µM. For the same molecule, the TGI turned out to be 6.17 µM in the test on MDA-MB-231 breast; 9.8 µM in the test with OVCAR-4 ovarian; 7.42 µM in the test on T-47D breast; 6.67 µM in the test with MCF7 breast; 31.5 µM in the test on COLO 205 colon; 18.3 µM in the test on SK-MEL-28 melanoma. The TGI turned out to be 43.2 µM with NCI-H226 lung; 64.3 µM in the test on A498 renal; 13.6 µM in the test on DU-145 prostate; 13.9 µM in the test on ACHN renal; 12.4 µM with U251 CNS; 6.07 µM with NCI-H23 lung. In the test on NCI-H460 lung, this molecule came in with a TGI of 88.8 µM.

Regarding `Cc1ccccc1N/C(=C(/C(Cl)=C(Cl)Cl)[N+](=O)[O-])n1nnc2ccccc21`, the TGI with UO-31 renal stood at 31.8 µM; with BT-549 breast, 27.5 µM; in the test with SNB-19 CNS, 46.8 µM; in the test with SK-OV-3 ovarian, 40.7 µM; in the test with MDA-MB-231 breast it was 58.1 µM; in the test with OVCAR-4 ovarian it was 34 µM. The TGI with T-47D breast was 58 µM; in the test with MCF7 breast, 86.5 µM; in the test with COLO 205 colon, 29.1 µM; with SK-MEL-28 melanoma, 30.9 µM; in the test on NCI-H226 lung it was 35.3 µM; in the test with A498 renal, 40.4 µM. Moreover, the TGI was 62.2 µM in the test on DU-145 prostate; over 100 µM in the test on ACHN renal; 29.9 µM in the test on U251 CNS; 33.3 µM with NCI-H23 lung; 28.5 µM in the test on NCI-H460 lung.

For the molecule `C/C(=N/NC(=S)Nc1ccc(Cl)cc1)c1cccc(/C(C)=N\NC(=S)Nc2ccc(Cl)cc2)n1`, the TGI is 53.2 µM in the test with UO-31 renal; over 100 µM in the test with TK-10 renal; over 100 µM in the test on SNB-19 CNS; over 100 µM in the test on IGROV1 ovarian; over 100 µM in the test on SK-OV-3 ovarian; 7.25 µM in the test with SR leukemia. Besides, the TGI with MDA-MB-231 breast was 48.4 µM; with OVCAR-4 ovarian, over 100 µM; in the test on T-47D breast, over 100 µM; in the test on MCF7 breast, 9.25 µM; in the test on COLO 205 colon, 30.7 µM; in the test on SK-MEL-28 melanoma, 45.6 µM. For the same molecule, the TGI was 47.5 µM with NCI-H226 lung; 79.5 µM in the test with A498 renal; 65.5 µM in the test with DU-145 prostate; 40.3 µM with ACHN renal; 60.3 µM in the test on U251 CNS; over 100 µM in the test on NCI-H23 lung. This molecule came in with a TGI with NCI-H460 lung of 56.4 µM.

For the molecule `Cc1cc(C)c(C(=O)c2nnc3ccccc3c2N)c(C)c1`, the TGI was over 100 µM in the test on BT-549 breast; over 100 µM in the test on SNB-19 CNS; 46.7 µM in the test on IGROV1 ovarian; over 100 µM in the test on SK-OV-3 ovarian; over 100 µM in the test on SR leukemia; 63.8 µM in the test on MDA-MB-231 breast. Besides, the TGI in the test with T-47D breast was 56.6 µM; in the test on COLO 205 colon it was 30.2 µM; in the test on SK-MEL-28 melanoma it was 56.7 µM; in the test with NCI-H226 lung, 49.7 µM; in the test on A498 renal it was over 100 µM; with DU-145 prostate, 84 µM. For the same molecule, the TGI with ACHN renal, with U251 CNS and with NCI-H23 lung was over 100 µM in each case.

With `COc1ccc2c(c1)C(=O)OCCC2`, the TGI with UO-31 renal, in the test with TK-10 renal, in the test with BT-549 breast, with SNB-19 CNS, with IGROV1 ovarian and in the test on SK-OV-3 ovarian was over 100 µM throughout. Also, the TGI in the test on MDA-MB-231 breast, in the test with OVCAR-4 ovarian, in the test on T-47D breast, in the test on MCF7 breast, in the test on COLO 205 colon and with SK-MEL-28 melanoma was over 100 µM throughout. The TGI in the test on NCI-H226 lung, in the test with A498 renal, with DU-145 prostate, in the test on ACHN renal, in the test with U251 CNS and in the test with NCI-H23 lung was over 100 µM in each case. Besides, the TGI in the test on NCI-H460 lung is over 100 µM.
